Source: patent publication US10899738B2 (THE REGENTS OF THE UNIVERSITY OF MICHIGAN, priority 2016, dated 2021)

Biological target: menin protein (Homo sapiens (Human), UniProt O00255)
Experiment: biochemical
Format: binding
Details: FP competitive binding; menin protein 4 nM, FAM-MM2 probe 2 nM; read-out: Menin Binding Affinity IC50
Procedure: A fluorescence polarization (FP) competitive binding assay was used to determine the binding affinities of representative menin inhibitors. A FAM labeled fluorescent probe was designed and synthesized based on a MLL1 peptide (FAM-MM2). Equilibrium dissociation constant (Kd) value of FAM-MM2 to menin protein was determined from protein saturation experiments by monitoring the total fluorescence polarization of mixtures composed with the fluorescent probe at a fixed concentration and the protein with increasing concentrations up to full saturation. Serial dilutions of the protein were mixed with FAM-MM2 to a final volume of 200 μl in the assay buffer (PBS with 0.02% Bovine γ-Globulin and 4% DMSO. 0.01% Triton X-100 was added right before assays). Final FAM-MM2 concentration was 2 nM. Plates were incubated at room temperature for 30 minutes with gentle shaking to assure equilibrium.
The IC50, see Table 3, and Ki values of representative Compounds of the Disclosure were determined in a competitive binding experiment. Mixtures of 5 μl of the tested compounds in DMSO and 195 μl of preincubated protein/probe complex solution in the assay buffer were added into assay plates which were incubated at room temperature for 30 minutes with gentle shaking. Final concentration of the menin protein was 4 nM, and final probe concentration is 2 nM. […] FP values were measured as described above. IC50 values were determined by nonlinear regression fitting of the competition curves.

menin protein, sequence (O00255 whole entry): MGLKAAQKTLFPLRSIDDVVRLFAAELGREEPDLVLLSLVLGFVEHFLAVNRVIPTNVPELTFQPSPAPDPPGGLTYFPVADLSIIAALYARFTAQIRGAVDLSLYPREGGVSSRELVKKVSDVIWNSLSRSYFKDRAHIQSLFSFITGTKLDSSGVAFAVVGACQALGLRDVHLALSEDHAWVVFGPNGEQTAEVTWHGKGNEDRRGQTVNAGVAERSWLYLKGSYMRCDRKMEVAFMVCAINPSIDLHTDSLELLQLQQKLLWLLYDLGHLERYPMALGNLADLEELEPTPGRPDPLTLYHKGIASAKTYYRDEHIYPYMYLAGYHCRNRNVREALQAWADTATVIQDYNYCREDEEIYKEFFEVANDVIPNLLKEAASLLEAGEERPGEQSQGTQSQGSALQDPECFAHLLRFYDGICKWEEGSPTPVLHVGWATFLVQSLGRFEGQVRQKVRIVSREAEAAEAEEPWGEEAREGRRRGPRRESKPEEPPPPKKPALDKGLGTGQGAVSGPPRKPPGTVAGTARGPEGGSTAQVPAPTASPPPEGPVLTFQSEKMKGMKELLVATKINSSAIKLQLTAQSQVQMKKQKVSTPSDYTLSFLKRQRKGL

IC50 [µM] | Compound
923 | CC(=O)O[C@@H]1CCC[C@H]1C(C#N)(c1cccc(C(F)(F)F)c1)C1CCN(CC2CN(c3ccc(C#N)cc3)C2)CC1 (mixture of isomers) [compound 418, rac-(1R,2S)-2-(cyano(1-((1-(4-cyanophenyl)azetidin-3-yl)methyl)piperidin-4-yl)(3-(trifluoromethyl)phenyl)methyl)cyclopentyl acetate]
0.004 | CNC(=O)O[C@H]1CCC[C@@H]1C(Cn1ccnc1)(c1ccccc1)C1CCN(CC2CN(c3ccc(S(=O)(=O)C4COC4)cc3)C2)CC1 (mixture of isomers) [compound 412, rac-(1S,2R)-2-(2-(1H-imidazol-1-yl)-1-(1-((1-(4-(oxetan-3-ylsulfonyl)phenyl)azetidin-3-yl)methyl)piperidin-4-yl)-1-phenylethyl)cyclopentyl methylcarbamate]
5.2 | CNC(=O)C[C@@H]1CCC[C@H]1C(C#N)(c1ccccc1)C1CCN(CC2CN(c3ccc(S(=O)(=O)c4ccncc4)cc3)C2)CC1 (mixture of isomers) [compound 339, rac-2-((1S,2R)-2-(cyano(phenyl)(1-((1-(4-(pyridin-4-ylsulfonyl)phenyl)azetidin-3-yl)methyl)piperidin-4-yl)methyl)cyclopentyl)-N-methylacetamide]
2.8 | CC(=O)O[C@@H]1CCC[C@H]1C(C#N)(c1ccccc1)C1CCN(CC2CN(c3ccc(S(=O)(=O)c4ccncc4)cc3)C2)CC1 (mixture of isomers) [compound 207, rac-(1R,2S)-2-(cyano(phenyl)(1-((1-(4-(pyridin-4-ylsulfonyl)phenyl)azetidin-3-yl)methyl)piperidin-4-yl)methyl)cyclopentyl acetate]
1.4 | CNC(=O)O[C@@H]1CCC[C@H]1C(CN1CCCC1)(c1ccccc1)C1CCN(CC2CN(c3ccc(S(=O)(=O)c4ccccc4)cc3)C2)CC1 (mixture of isomers) [compound 360, rac-(1R,2S)-2-(1-phenyl-1-(1-((1-(4-(phenylsulfonyl)phenyl)azetidin-3-yl)methyl)piperidin-4-yl)-2-(pyrrolidin-1-yl)ethyl)cyclopentyl methylcarbamate]
0.454 | N#CC(c1ccccc1)(C1CCN(CC2CN(c3ccc(S(=O)(=O)c4ccncc4)cc3)C2)CC1)[C@@H]1CCC[C@H]1OC(N)=O (mixture of isomers) [compound 212, rac-(1R,2S)-2-(cyano(phenyl)(1-((1-(4-(pyridin-4-ylsulfonyl)phenyl)azetidin-3-yl)methyl)piperidin-4-yl)methyl)cyclopentyl carbamate]
0.073 | CC(=O)O[C@H]1CCC[C@@H]1C(C#N)(c1ccccc1)C1CCN(CC2CN(c3ccc(S(C)(=O)=O)cc3)C2)CC1 (mixture of isomers) [compound 183, rac-(1S,2R)-2-(cyano(1-((1-(4-(methylsulfonyl)phenyl)azetidin-3-yl)methyl)piperidin-4-yl)(phenyl)methyl)cyclopentyl acetate]
3.8 | CS(=O)(=O)c1ccc(N2CC(CN3CCC(C(C#N)(c4ccccc4)[C@@H]4CCC[C@H]4O)CC3)C2)cc1 (mixture of isomers) [compound 179, rac-2-((1S,2R)-2-hydroxycyclopentyl)-2-(1-((1-(4-(methylsulfonyl)phenyl)azetidin-3-yl)methyl)piperidin-4-yl)-2-phenylacetonitrile]
0.261 | COC(=O)[C@H]1CCC[C@@H]1C(C#N)(c1ccccc1)C1CCN(CC2CN(c3ccc(S(=O)(=O)C4CC4)cc3)C2)CC1 (mixture of isomers) [compound 332, methyl rac-(1S,2S)-2-(cyano(1-((1-(4-(cyclopropylsulfonyl)phenyl)azetidin-3-yl)methyl)piperidin-4-yl)(phenyl)methyl)cyclopentane-1-carboxylate]
11.6 | CC(=O)O[C@@H]1CCC[C@H]1C(C#N)(c1cccc(F)c1)C1CCN(CC2CN(c3ccc(CC(F)(F)F)cc3)C2)CC1 (mixture of isomers) [compound 420, rac-(1R,2S)-2-(cyano(3-fluorophenyl)(1-((1-(4-(2,2,2-trifluoroethyl)phenyl)azetidin-3-yl)methyl)piperidin-4-yl)methyl)cyclopentyl acetate]
0.161 | CC(=O)O[C@@H]1CCC[C@H]1C1(C2CCN(CC3CN(c4ccc(S(=O)(=O)C5CC5)cc4)C3)CC2)CN(C)Cc2ccc(F)cc21 (mixture of isomers) [compound 317, rac-(1R,2S)-2-(4-(1-((1-(4-(cyclopropylsulfonyl)phenyl)azetidin-3-yl)methyl)piperidin-4-yl)-6-fluoro-2-methyl-1,2,3,4-tetrahydroisoquinolin-4-yl)cyclopentyl acetate]
4.6 | CNC(=O)O[C@@H]1CCC[C@H]1C(C#N)(c1ccccc1)C1CCN(CC2CN(c3ccc([N+](=O)[O-])cc3)C2)CC1 (mixture of isomers) [compound 384, rac-(1R,2S)-2-(cyano(1-((1-(4-nitrophenyl)azetidin-3-yl)methyl)piperidin-4-yl)(phenyl)methyl)cyclopentyl methylcarbamate]

Compound | IC50 [µM]
N#CC(Cc1ccncc1)(c1ccccc1)C1CCN(CC2CN(c3ccc(S(=O)(=O)c4ccncc4)cc3)C2)CC1 (centres unmarked) [compound 343, 2-phenyl-3-(pyridin-4-yl)-2-(1-((1-(4-(pyridin-4-ylsulfonyl)phenyl)azetidin-3-yl)methyl)piperidin-4-yl)propanenitrile] | 8.8
CCC(CC)C1(C2CCN(CCCOc3ccc(C#N)cc3)CC2)NCCc2ccccc21 (centres unmarked) [compound 249, 4-(3-(4-(1-(pentan-3-yl)-1,2,3,4-tetrahydroisoquinolin-1-yl)piperidin-1-yl)propoxy)benzonitrile] | 1.9
CCC(C)CC1(C2CCN(CCCOc3ccc(C#N)cc3)CC2)NCCc2ccccc21 (centres unmarked) [compound 172, 4-(3-(4-(1-(2-methylbutyl)-1,2,3,4-tetrahydroisoquinolin-1-yl)piperidin-1-yl)propoxy)benzonitrile] | 11.2
C[C@H](NC(=O)O[C@H]1CCC[C@@H]1[C@](C#N)(c1ccccc1)C1CCN(CC2CN(c3ccc(S(=O)(=O)c4ccncc4)cc3)C2)CC1)c1ccccc1 [compound 217, (1S,2R)-2-((S)-cyano(phenyl)(1-((1-(4-(pyridin-4-ylsulfonyl)phenyl)azetidin-3-yl)methyl)piperidin-4-yl)methyl)cyclopentyl ((S)-1-phenylethyl)carbamate] | 11.6
N#CC(c1ccccc1)(C1CCCC1)C1CCN(CCCOc2ccc(S(=O)(=O)c3ccccc3)cc2)CC1 (centres unmarked) [compound 126, 2-cyclopentyl-2-phenyl-2-(1-(3-(4-(phenylsulfonyl)phenoxy)propyl)piperidin-4-yl)acetonitrile] | 58.4
N#Cc1ccc(-c2ccc(N3CCC(C4(C5CCCC5)NCCc5ccccc54)CC3)cc2)cc1 (centres unmarked) [compound 77, 4′-(4-(1-cyclopentyl-1,2,3,4-tetrahydroisoquinolin-1-yl)piperidin-1-yl)-[1,1′-biphenyl]-4-carbonitrile] | 2580
CC(=O)N1CCCC(C(C#N)(c2ccccc2)C2CCN(CCCOc3ccc(C#N)cc3)CC2)C1 (centres unmarked) [compound 307, 4-(3-(4-((1-acetylpiperidin-3-yl)(cyano)(phenyl)methyl)piperidin-1-yl)propoxy)benzontrile] | 30.6
CC(=O)NCC(c1ccccc1)(C1CCCC1)C1CCN(CCCOc2ccc(C#N)cc2)CC1 (centres unmarked) [compound 40, N-(2-(1-(3-(4-cyanophenoxy)propyl)piperidin-4-yl)-2-cyclopentyl-2-phenylethyl)acetamide] | 0.817
